Converted amounts (≈) assume the structure as drawn. Like-named read-outs stand apart in the source and are kept apart here.
Legend:
[1] = tested on: Methicillin-resistant Staphylococcus aureus, clinical isolate; assay: Effect of pH on broth macrodilution MICs; format: cell-based
[2] = tested on: Vancomycin-resistant Enterococcus faecalis, clinical isolate; assay: Effect of pH on broth macrodilution MICs; format: cell-based
[3] = tested on: Bacillus subtilis Presque Isle 620; assay: Effect of pH on broth macrodilution MICs; format: cell-based
[4] = tested on: Listeria monocytogenes, clinical isolate; assay: Effect of pH on broth macrodilution MICs; format: cell-based
[5] = tested on: Corynebacterium diphtheriae, clinical isolate; assay: Effect of pH on broth macrodilution MICs; format: cell-based
[6] = tested on: Bacillus subtilis Presque Isle 620; assay: Frequency of occurrence of spontaneous resistant mutants; format: cell-based; details: 24 h
Procedure: (§1) Overnight cultures of S. aureus 29213, E. faecalis 29212, S. pneumoniae 6303 and Bacillus subtilis 620 were diluted to an OD625nm=0.08 0.1 ml of each preparation was spread onto agar plates containing four or eight times the broth macrodilution MIC of the androstane derivative. The starting inoculum for each organism was also diluted and plated onto drug-free plates for determination of CFU/ml. After a 24 h incubation at the appropriate temperature, the number of bacterial colonies on drug-supplemented agar was counted. The frequency of occurrence of spontaneous mutants was calculated by dividing the number of colonies on drug containing plates by the number of colonies in the inoculum. When no colonies were visualized on drug-containing plates, the calculation was (<) 1 colony divided by the number of colonies in the inoculum.

[7] = tested on: Enterococcus faecalis ATCC 29212; assay: as above; format: cell-based; details: 24 h
Procedure: as §1

[8] = tested on: Staphylococcus aureus ATCC 29213; assay: as above; format: cell-based; details: 24 h
Procedure: as §1

[9] = tested on: Streptococcus pneumoniae ATCC 6303; assay: as above; format: cell-based; details: 24 h
Procedure: as §1

[10] = tested on: Staphylococcus aureus ATCC 29213; assay: Disk diffusion susceptibility testing
[11] = tested on: Enterococcus faecalis ATCC 29212; assay: Disk diffusion susceptibility testing
[12] = tested on: Stenotrophomonas maltophilia ATCC 13637; assay: Disk diffusion susceptibility testing
[13] = tested on: Neisseria gonorrhoeae ATCC 49226; assay: Disk diffusion susceptibility testing
[14] = tested on: Enterobacter cloacae ATCC 13047; assay: Disk diffusion susceptibility testing
[15] = tested on: Candida albicans ATCC 90028; assay: Disk diffusion susceptibility testing
[16] = tested on: Methicillin-resistant Staphylococcus aureus; assay: Broth macrodilution MIC and MBC, clinical isolates
B. cereus = assay: Broth macrodilution MIC and MBC, clinical isolates; details: 5 strains
B. licheniformis = assay: Broth macrodilution MIC and MBC, clinical isolates; details: clinical isolate, 1 strain
Paenibacillus alvei = assay: Broth macrodilution MIC and MBC, clinical isolates; details: clinical isolate, 1 strain
Rhodococcus spp. = assay: Broth macrodilution MIC and MBC, clinical isolates
R. equi = assay: Broth macrodilution MIC and MBC, clinical isolates; details: 3 strains
Gordona bronchialis = assay: Broth macrodilution MIC and MBC, clinical isolates; details: clinical isolate, 1 strain
C. sputi = assay: Broth macrodilution MIC and MBC, clinical isolates; details: clinical isolate, 1 strain
Listeria monocytogenes = assay: Broth macrodilution MIC and MBC, clinical isolates; details: 3 strains
[17] = tested on: Corynebacterium diphtheriae; assay: Broth macrodilution MIC and MBC, clinical isolates; details: 3 strains
Nocardia asteroides = assay: Broth macrodilution MIC and MBC, clinical isolates; details: clinical isolate, 1 strain
N. farcinica = assay: Broth macrodilution MIC and MBC, clinical isolates; details: clinical isolate, 1 strain
Lactobacillus spp. = assay: Broth macrodilution MIC and MBC, clinical isolates; details: clinical isolate, 1 strain
[18] = tested on: S. epidermidis Presque Isle 4653; assay: Broth macrodilution MIC and MBC, reference strains; details: Staphylococcus epidermidis
[19] = tested on: Streptococcus pneumoniae ATCC 6303; assay: Broth macrodilution MIC and MBC, reference strains; details: ATCC6303
[20] = pH 6, range of 3 determinations
[21] = pH 7, range of 3 determinations
[22] = pH 8, range of 3 determinations
[23] = agar with 4X broth macrodilution MIC
[24] = agar with 8X broth macrodilution MIC

CC(=O)O[C@H]1CC[C@@]2(C)[C@@H](CC[C@@H]3[C@@H]2CC[C@]2(C)[C@@H](NC(=O)[C@@H]4CCCN4)CC[C@@H]32)C1
MIC Range [1, 20]: 16 µg/mL (≈ 37.2 µM) | MIC Range [1, 21]: 8 µg/mL (≈ 18.6 µM) | MIC Range [1, 22]: 4 µg/mL (≈ 9.29 µM) | MIC Range [2, 20]: 32 µg/mL (≈ 74.3 µM) | MIC Range [2, 21]: 8 µg/mL (≈ 18.6 µM) | MIC Range [2, 22]: 4 to 8 µg/mL | MIC Range [3, 20]: 8 µg/mL (≈ 18.6 µM) | MIC Range [3, 21]: 4 to 8 µg/mL | MIC Range [3, 22]: 4 to 8 µg/mL | MIC Range [4, 20]: 32 µg/mL (≈ 74.3 µM) | MIC Range [4, 22]: 16 µg/mL (≈ 37.2 µM) | MIC Range [5, 20]: 16 µg/mL (≈ 37.2 µM) | MIC Range [5, 21]: 4 to 8 µg/mL | MIC Range [5, 22]: 2 to 4 µg/mL | Frequency at 4X MIC [6, 23]: <2.2 × 10^−7 | Frequency at 8X MIC [6, 24]: <2.2 × 10^−7 | Frequency at 4X MIC [7, 23]: 8.9 × 10^−7 | Frequency at 8X MIC [7, 24]: <1 × 10^−8 | Frequency at 4X MIC [8, 23]: 1.2 × 10^−6 | Frequency at 8X MIC [8, 24]: <6 × 10^−9 | Frequency at 4X MIC [9, 23]: <3.3 × 10^−6 | Frequency at 8X MIC [9, 24]: <3.3 × 10^−6 | MIC [10]: 12.5-25 μg/disk | MIC [11]: 25-50 μg/disk | MIC [12]: >100 μg/disk | MIC [13]: >100 μg/disk | MIC [14]: >100 μg/disk | MIC [15]: >100 μg/disk | MIC50 ([16]; Staphylococcus aureus): 8 µg/mL (≈ 18.6 µM) | MIC90 ([16]; Staphylococcus aureus): 8 µg/mL (≈ 18.6 µM) | MBC ([16]; Staphylococcus aureus, read-out: MBC 50%): 16 µg/mL (≈ 37.2 µM) | MBC ([16]; Staphylococcus aureus, read-out: MBC 90%): > 64 µg/mL | MIC Range ([16]; clinical isolates, 22 strains): 4 to 8 µg/mL | share of strains with MBC/MIC ratios ≦2 ([16]; methicillin-resistant S. aureus): 73% | MBC Range (B. cereus): >64 µg/mL | MIC Range (B. cereus): 32 µg/mL (≈ 74.3 µM) | MBC Range (B. licheniformis): >64 µg/mL | MIC Range (B. licheniformis): 32 µg/mL (≈ 74.3 µM) | MBC Range (Paenibacillus alvei): >64 µg/mL | MIC Range (Paenibacillus alvei): 16 µg/mL (≈ 37.2 µM) | MIC50 (Rhodococcus spp.; Rhodococcus): 8 µg/mL (≈ 18.6 µM) | MIC90 (Rhodococcus spp.; Rhodococcus): 16 µg/mL (≈ 37.2 µM) | share of strains with MBC/MIC ratios ≦2 (Rhodococcus spp.; Rhodococcus spp.): 58% | MBC (Rhodococcus spp.; Rhodococcus, read-out: MBC 50%): 16 µg/mL (≈ 37.2 µM) | MBC (Rhodococcus spp.; Rhodococcus, read-out: MBC 90%): 32 µg/mL (≈ 74.3 µM) | MIC Range (Rhodococcus spp.; clinical isolates, 19 strains, read after 48 h): 4 to 64 µg/mL | MBC Range (R. equi): 16 to 32 µg/mL | MIC Range (R. equi; read after 48 h): 4 to 8 µg/mL | MBC Range (Gordona bronchialis): 8 µg/mL (≈ 18.6 µM) | MIC Range (Gordona bronchialis): 8 µg/mL (≈ 18.6 µM) | MBC Range (C. sputi): 32 µg/mL (≈ 74.3 µM) | MIC Range (C. sputi; read at 72 h): 8 µg/mL (≈ 18.6 µM) | MBC Range (Listeria monocytogenes): 32 to 64 µg/mL | MIC Range (Listeria monocytogenes): 16 to 32 µg/mL | MBC Range [17]: 8 µg/mL (≈ 18.6 µM) | MIC Range [17]: 4 to 8 µg/mL | MBC Range (Nocardia asteroides): 32 µg/mL (≈ 74.3 µM) | MIC Range (Nocardia asteroides): 8 µg/mL (≈ 18.6 µM) | MBC Range (N. farcinica): 64 µg/mL (≈ 149 µM) | MIC Range (N. farcinica): 16 µg/mL (≈ 37.2 µM) | MBC Range (Lactobacillus spp.): 32 µg/mL (≈ 74.3 µM) | MIC Range (Lactobacillus spp.): 16 µg/mL (≈ 37.2 µM) | MBC [18]: 32 µg/mL (≈ 74.3 µM) | MIC [18]: 8 µg/mL (≈ 18.6 µM) | MBC [19]: 16 µg/mL (≈ 37.2 µM) | MIC [19]: 16 µg/mL (≈ 37.2 µM)

Source: patent US20030216361A1, “Therapeutic compositions effective against gram positive bacteria” (priority 2000, published 2003)
